Laboratory results reported in ChEMBL document CHEMBL5352429, “Designed symmetrical β-hairpin peptides for treating multidrug-resistant salmonella typhimurium infections” (Eur J Med Chem, 2022).
Active and inactive are the calls of the source. Peptide text beside a SMILES is read from it.

Key:
RAW264.7 = test: Inhibition of LPS-stimulated TNF-alpha production in mouse RAW264.7 cells at 1 to 128 ug/ml incubated for 24 hrs by ELISA analysis; assay type: functional, cell-based; details: dose 1-128 µg/ml
Cell membrane [1] = test: Induction of membrane damage in Salmonella typhimurium DT104 assessed as substantial damage to bacterial envelope at 1 times of MIC incubated for 60 mins by transmission electron microscopic analysis; assay type: subcellular; details: Salmonella enterica subsp. enterica serovar Typhimurium
Salmonella typhimurium = test: Antibacterial activity against Salmonella typhimurium DT104 assessed as increase in ZO-1 mRNA level in colon at 20 mg/kg, ip administered for 3 days and measured on day 7 by RT-PCR analysis; assay type: functional, organism-based; details: Salmonella enterica subsp. enterica serovar Typhimurium, time 7.0 day
Cell membrane [2] = test: Disruption of membrane integrity in Salmonella typhimurium DT104 assessed as increase in fluorescence intensity at 0.5 to 2 times of MIC incubated for 15 mins by PI staining based flow cytometric analysis; assay type: subcellular; details: Salmonella enterica subsp. enterica serovar Typhimurium

C[C@@H](O)[C@H](NC(=O)[C@H](CS)NC(=O)[C@H](CCCCN)NC(=O)[C@H](Cc1c[nH]c2ccccc12)NC(=O)[C@H](CCCCN)NC(=O)[C@@H](N)Cc1c[nH]c2ccccc12)C(=O)N[C@@H](CCCCN)C(=O)N[C@@H](CO)C(=O)NCC(=O)N[C@@H](CS)C(=O)N[C@@H](CCCCN)C(=O)N[C@@H](Cc1c[nH]c2ccccc12)C(=O)N[C@@H](CCCCN)C(=O)N[C@@H](Cc1c[nH]c2ccccc12)C(N)=O (H-WKWKCTKSGCKWKW-NH2)
active: inhibition (RAW264.7) | Activity (Cell membrane [1]) | Activity (Salmonella typhimurium) | Activity (Cell membrane [2])
